{"source": "paper PMC3475717", "about": "“A Spiroligomer α-Helix Mimic That Binds HDM2, Penetrates Human Cells and Stabilizes HDM2 in Cell Culture” (PLoS ONE, 2012)", "tested_on": "HepG2 cells", "assay": "cell penetration, fluorescence and confocal microscopy; active vs. passive transport", "type": "cell-based, human", "protocol": "Cell Culture and Treatment. HepG2 (expressing wild-type p53) and Huh7 (expressing mutant p53) cell lines were purchased from the American Type Culture Collection (ATCC) and cultured as monolayers in Dulbecco’s modified Eagle’s medium (DMEM) (Invitrogen) supplemented with 100 mM nonessential amino acid solution, 100 mM sodium pyruvate, 100 U/mL penicillin, 100 μg/mL streptomycin, and 10% heat inactivated fetal bovine serum (FBS) (all from Hyclone).\nCells were maintained at 37° C and 5% CO2 and were treated with media that contained 0.5%\nFBS. Nutlin-3 (Sigma) was dissolved in 0.01% DMSO (Sigma). This concentration of DMSO did not affect the cell phenotype. Both nutlin-3 and spiroligomers were added into the medium for final concentrations of 2 µM, 5 µM, 10 µM and 20 µM for 24 hours. For the western blot experiments detailed below, the time length for incubation with bis-peptide was 17 hours.\nFluorescence and Confocal Microscopy. Fluorescence and confocal microscopy were applied to live and fixed cells. Cells were grown on glass chambers and fixed with ice-cold 95:5 ethanol/acetic acid for 10 minutes at -20 °C. Sections were washed with PBS and mounted in Vectashield aqueous mounting medium with DAPI (Vector laboratories). Fluorescent specimens were analyzed using an ECLIPSE Ti microscope (Nikon), lenses with hardened […]\n(1 picture or pasted object on this page, not shown here) […]\nfilters (Nikon), and a Nikon DS-Fi1 camera, which was operated by NIS Elements computer software (Nikon). Confocal microscopy was performed with a Leica SP-1 microscope, with illumination at 488 nm and spectral detection. […]\nMathematical model described8 and MxPro software (Stratagene) were used to process PCR data. End-point PCR reactions were assayed with PCR Master Mix (Promega). Samples were amplified in 34 cycles; each cycle consisted of 30 sec of denaturation at 95 °C, 30 sec of annealing at 60 °C, and 30 sec of elongation at 72 °C. After 34 cycles, samples were subjected to final elongation for 5 minutes at 72 °C. […]\nfluorescence in the images."}
{"smiles": "CC(C)CN1C(=O)[C@@H]2C[C@@]3(CN2C(=O)[C@@]12C[C@H]1C(=O)N(Cc4ccc(Cl)c(Cl)c4)[C@]4(C[C@@H]5C(=O)N[C@@H](CCc6ccccc6)C(=O)N5C4)C(=O)N1C2)NC(=O)[C@@H](CCCCNC(=S)Nc1ccc2c(c1)C(=O)OC21c2ccc(O)cc2Oc2cc(O)ccc21)NC3=O", "note": "[Compound 1]", "values": [{"measurement": "mechanism of cell penetration", "result": "passive diffusion"}, {"measurement": "uptake of fluorescence with active transport inhibited", "setting": "HepG2, 37°C, 60 min pre-treatment with 10 mM sodium azide and 50 mM deoxy-D-glucose, 5 µM, 3.75 hours", "result": "indistinguishable from control cells treated with 1 at 37 °C"}]}
